Measurements as given in ChEMBL document CHEMBL1649524, “Resistance selection studies comparing the activity of razupenem (PTZ601) to vancomycin and linezolid against eight methicillin-resistant and two methicillin-susceptible Staphylococcus aureus strains” (2009).
In brackets after ≈: the same amount, converted by molar mass.

Assays:
Staphylococcus aureus [1] = assay: Antimicrobial activity against vancomycin-intermediate Staphylococcus aureus 555 by macrodilution method; assay type: functional
Staphylococcus aureus [2] = assay: Antimicrobial activity against vancomycin-resistant Staphylococcus aureus 510 by macrodilution method; assay type: functional
Staphylococcus aureus [3] = assay: Antimicrobial activity against vancomycin-resistant Staphylococcus aureus 509 by macrodilution method; assay type: functional
Staphylococcus aureus [4] = assay: Antimicrobial activity against heterogeneous vancomycin-intermediate Staphylococcus aureus 168 after 50 passages by macrodilution method; assay type: functional
Staphylococcus aureus [5] = assay: Antimicrobial activity against vancomycin-intermediate Staphylococcus aureus 1287 after 50 passages by macrodilution method; assay type: functional
Staphylococcus aureus [6] = assay: Antimicrobial activity against methicillin-resistant Staphylococcus aureus 525 after 50 passages by macrodilution method; assay type: functional
Staphylococcus aureus [7] = assay: Antimicrobial activity against methicillin-susceptible Staphylococcus aureus 540 after 50 passages by macrodilution method
Staphylococcus aureus [8] = assay: Antimicrobial activity against methicillin-susceptible Staphylococcus aureus 543 after 50 passages by macrodilution method; assay type: functional
Staphylococcus aureus [9] = assay: Antimicrobial activity against vancomycin-resistant Staphylococcus aureus 510 after 50 passages by macrodilution method; assay type: functional
Staphylococcus aureus [10] = assay: Antimicrobial activity against vancomycin-resistant Staphylococcus aureus 509 measured after 10 antibiotic-free subculturing by macrodilution method; assay type: functional
Staphylococcus aureus [11] = assay: Antimicrobial activity against vancomycin-intermediate Staphylococcus aureus 555 measured on day 5 by macrodilution method; assay type: functional; conditions: Staphylococcus aureus, 555, 120 h
Staphylococcus aureus [12] = assay: Antimicrobial activity against vancomycin-intermediate Staphylococcus aureus 555 measured on day 10 by macrodilution method; assay type: functional; conditions: Staphylococcus aureus, 555, 240 h
Staphylococcus aureus [13] = assay: Antimicrobial activity against vancomycin-intermediate Staphylococcus aureus 555 measured on day 15 by macrodilution method; assay type: functional; conditions: Staphylococcus aureus, 555, 360 h
Staphylococcus aureus [14] = assay: Antimicrobial activity against vancomycin-intermediate Staphylococcus aureus 1287 measured on day 15 by macrodilution method; assay type: functional; conditions: Staphylococcus aureus, 1287, 360 h
Staphylococcus aureus [15] = assay: Antimicrobial activity against methicillin-susceptible Staphylococcus aureus 540 measured on day 15 by macrodilution method; assay type: functional; conditions: Staphylococcus aureus, 540, 360 h
Staphylococcus aureus [16] = assay: Antimicrobial activity against methicillin-susceptible Staphylococcus aureus 543 measured on day 15 by macrodilution method; assay type: functional; conditions: Staphylococcus aureus, 543, 360 h
Staphylococcus aureus [17] = assay: Antimicrobial activity against heterogeneous vancomycin-intermediate Staphylococcus aureus 168 measured on day 20 by macrodilution method; assay type: functional; conditions: Staphylococcus aureus, 168, 480 h
Staphylococcus aureus [18] = assay: Antimicrobial activity against vancomycin-intermediate Staphylococcus aureus 555 measured on day 20 by macrodilution method; assay type: functional; conditions: Staphylococcus aureus, 555, 480 h
Staphylococcus aureus [19] = assay: Antimicrobial activity against methicillin-resistant Staphylococcus aureus 525 measured on day 20 by macrodilution method; assay type: functional; conditions: Staphylococcus aureus, 525, 480 h
Staphylococcus aureus [20] = assay: Antimicrobial activity against methicillin-susceptible Staphylococcus aureus 540 measured on day 20 by macrodilution method; assay type: functional; conditions: Staphylococcus aureus, 540, 480 h
Staphylococcus aureus [21] = assay: Antimicrobial activity against methicillin-susceptible Staphylococcus aureus 543 measured on day 20 by macrodilution method; assay type: functional; conditions: Staphylococcus aureus, 543, 480 h
Staphylococcus aureus [22] = assay: Antimicrobial activity against heterogeneous vancomycin-intermediate Staphylococcus aureus 168 measured on day 25 by macrodilution method; assay type: functional; conditions: Staphylococcus aureus, 168, 600 h
Staphylococcus aureus [23] = assay: Antimicrobial activity against vancomycin-intermediate Staphylococcus aureus 555 measured on day 25 by macrodilution method; assay type: functional; conditions: Staphylococcus aureus, 555, 600 h
Staphylococcus aureus [24] = assay: Antimicrobial activity against methicillin-resistant Staphylococcus aureus 547 measured on day 25 by macrodilution method; assay type: functional; conditions: Staphylococcus aureus, 547, 600 h
Staphylococcus aureus [25] = assay: Antimicrobial activity against methicillin-susceptible Staphylococcus aureus 540 measured on day 25 by macrodilution method; assay type: functional; conditions: Staphylococcus aureus, 540, 600 h
Staphylococcus aureus [26] = assay: Antimicrobial activity against methicillin-susceptible Staphylococcus aureus 543 measured on day 25 by macrodilution method; assay type: functional; conditions: Staphylococcus aureus, 543, 600 h
Staphylococcus aureus [27] = assay: Antimicrobial activity against heterogeneous vancomycin-intermediate Staphylococcus aureus 873 measured on day 30 by macrodilution method; assay type: functional
Staphylococcus aureus [28] = assay: Antimicrobial activity against vancomycin-intermediate Staphylococcus aureus 555 measured on day 30 by macrodilution method; assay type: functional
Staphylococcus aureus [29] = assay: Antimicrobial activity against methicillin-resistant Staphylococcus aureus 525 measured on day 30 by macrodilution method; assay type: functional
Staphylococcus aureus [30] = assay: Antimicrobial activity against methicillin-resistant Staphylococcus aureus 547 measured on day 30 by macrodilution method; assay type: functional
Staphylococcus aureus [31] = assay: Antimicrobial activity against methicillin-susceptible Staphylococcus aureus 540 measured on day 30 by macrodilution method; assay type: functional
Staphylococcus aureus [32] = assay: Antimicrobial activity against methicillin-susceptible Staphylococcus aureus 543 measured on day 30 by macrodilution method; assay type: functional
Staphylococcus aureus [33] = assay: Antimicrobial activity against heterogeneous vancomycin-intermediate Staphylococcus aureus 168 measured on day 35 by macrodilution method; assay type: functional
Staphylococcus aureus [34] = assay: Antimicrobial activity against vancomycin-intermediate Staphylococcus aureus 555 measured on day 35 by macrodilution method; assay type: functional
Staphylococcus aureus [35] = assay: Antimicrobial activity against methicillin-resistant Staphylococcus aureus 525 measured on day 35 by macrodilution method; assay type: functional
Staphylococcus aureus [36] = assay: Antimicrobial activity against methicillin-resistant Staphylococcus aureus 547 measured on day 35 by macrodilution method; assay type: functional
Staphylococcus aureus [37] = assay: Antimicrobial activity against methicillin-susceptible Staphylococcus aureus 540 measured on day 35 by macrodilution method; assay type: functional
Staphylococcus aureus [38] = assay: Antimicrobial activity against methicillin-susceptible Staphylococcus aureus 543 measured on day 35 by macrodilution method; assay type: functional
Staphylococcus aureus [39] = assay: Antimicrobial activity against heterogeneous vancomycin-intermediate Staphylococcus aureus 168 measured on day 40 by macrodilution method; assay type: functional
Staphylococcus aureus [40] = assay: Antimicrobial activity against vancomycin-intermediate Staphylococcus aureus 555 measured on day 40 by macrodilution method; assay type: functional
Staphylococcus aureus [41] = assay: Antimicrobial activity against methicillin-resistant Staphylococcus aureus 525 measured on day 40 by macrodilution method; assay type: functional
Staphylococcus aureus [42] = assay: Antimicrobial activity against methicillin-susceptible Staphylococcus aureus 540 measured on day 40 by macrodilution method; assay type: functional
Staphylococcus aureus [43] = assay: Antimicrobial activity against heterogeneous vancomycin-intermediate Staphylococcus aureus 168 measured on day 45 by macrodilution method; assay type: functional
Staphylococcus aureus [44] = assay: Antimicrobial activity against vancomycin-intermediate Staphylococcus aureus 555 measured on day 45 by macrodilution method; assay type: functional
Staphylococcus aureus [45] = assay: Antimicrobial activity against vancomycin-intermediate Staphylococcus aureus 1287 measured on day 45 by macrodilution method; assay type: functional
Staphylococcus aureus [46] = assay: Antimicrobial activity against methicillin-resistant Staphylococcus aureus 525 measured on day 45 by macrodilution method; assay type: functional
Staphylococcus aureus [47] = assay: Antimicrobial activity against methicillin-susceptible Staphylococcus aureus 540 measured on day 45 by macrodilution method; assay type: functional
Staphylococcus aureus [48] = assay: Antimicrobial activity against methicillin-susceptible Staphylococcus aureus 543 measured on day 45 by macrodilution method; assay type: functional
Staphylococcus aureus [49] = assay: Antimicrobial activity against heterogeneous vancomycin-intermediate Staphylococcus aureus 168 measured on day 50 by macrodilution method; assay type: functional
Staphylococcus aureus [50] = assay: Antimicrobial activity against vancomycin-intermediate Staphylococcus aureus 555 measured on day 50 by macrodilution method; assay type: functional
Staphylococcus aureus [51] = assay: Antimicrobial activity against vancomycin-intermediate Staphylococcus aureus 1287 measured on day 50 by macrodilution method; assay type: functional
Staphylococcus aureus [52] = assay: Antimicrobial activity against methicillin-resistant Staphylococcus aureus 525 measured on day 50 by macrodilution method; assay type: functional
Staphylococcus aureus [53] = assay: Antimicrobial activity against methicillin-resistant Staphylococcus aureus 547 measured on day 50 by macrodilution method; assay type: functional
Staphylococcus aureus [54] = assay: Antimicrobial activity against methicillin-susceptible Staphylococcus aureus 540 measured on day 50 by macrodilution method; assay type: functional
Staphylococcus aureus [55] = assay: Antimicrobial activity against methicillin-susceptible Staphylococcus aureus 543 measured on day 50 by macrodilution method; assay type: functional
Staphylococcus aureus [56] = assay: microbe, parasite or virus in culture; conditions: 555
Description: Antimicrobial activity against vancomycin-intermediate Staphylococcus aureus 555 after 50 passages by macrodilution method

Staphylococcus aureus [57] = assay: microbe, parasite or virus in culture; conditions: 547
Description: Antimicrobial activity against methicillin-resistant Staphylococcus aureus 547 after 50 passages by macrodilution method

## CN[C@H](CC(C)C)C(=O)N[C@H]1C(=O)N[C@@H](CC(N)=O)C(=O)N[C@H]2C(=O)N[C@H]3C(=O)N[C@H](C(=O)N[C@H](C(=O)O)c4cc(O)cc(O)c4-c4cc3ccc4O)[C@H](O)c3ccc(c(Cl)c3)Oc3cc2cc(c3O[C@@H]2O[C@H](CO)[C@@H](O)[C@H](O)[C@H]2O[C@H]2C[C@](C)(N)[C@H](O)[C@H](C)O2)Oc2ccc(cc2Cl)[C@H]1O [VANCOMYCIN]
Staphylococcus aureus [1]
  MIC: 8 µg/mL (≈ 5.52 µM)
Staphylococcus aureus [2]
  MIC: 64 µg/mL (≈ 44.2 µM)
Staphylococcus aureus [3]
  MIC: > 64 µg/mL
Staphylococcus aureus [4]
  MIC: 8 µg/mL (≈ 5.52 µM)
Staphylococcus aureus [5]
  MIC: 8 µg/mL (≈ 5.52 µM)
Staphylococcus aureus [6]
  MIC: 8 µg/mL (≈ 5.52 µM)
Staphylococcus aureus [7]
  MIC: 8 µg/mL (≈ 5.52 µM)
Staphylococcus aureus [8]
  MIC: 8 µg/mL (≈ 5.52 µM)
Staphylococcus aureus [9]
  MIC: ≥ 64 µg/mL
Staphylococcus aureus [10]
  MIC: > 64 µg/mL
Staphylococcus aureus [11]
  MIC: 8 µg/mL (≈ 5.52 µM)
Staphylococcus aureus [12]
  MIC: 8 µg/mL (≈ 5.52 µM)
Staphylococcus aureus [13]
  MIC: 8 µg/mL (≈ 5.52 µM)
Staphylococcus aureus [14]
  MIC: 8 µg/mL (≈ 5.52 µM)
Staphylococcus aureus [15]
  MIC: 8 µg/mL (≈ 5.52 µM)
Staphylococcus aureus [16]
  MIC: 8 µg/mL (≈ 5.52 µM)
Staphylococcus aureus [17]
  MIC: 8 µg/mL (≈ 5.52 µM)
Staphylococcus aureus [18]
  MIC: 8 µg/mL (≈ 5.52 µM)
Staphylococcus aureus [19]
  MIC: 8 µg/mL (≈ 5.52 µM)
Staphylococcus aureus [20]
  MIC: 8 µg/mL (≈ 5.52 µM)
Staphylococcus aureus [21]
  MIC: 8 µg/mL (≈ 5.52 µM)
Staphylococcus aureus [22]
  MIC: 8 µg/mL (≈ 5.52 µM)
Staphylococcus aureus [23]
  MIC: 8 µg/mL (≈ 5.52 µM)
Staphylococcus aureus [24]
  MIC: 8 µg/mL (≈ 5.52 µM)
Staphylococcus aureus [25]
  MIC: 8 µg/mL (≈ 5.52 µM)
Staphylococcus aureus [26]
  MIC: 8 µg/mL (≈ 5.52 µM)
Staphylococcus aureus [27]
  MIC: 8 µg/mL (≈ 5.52 µM)
Staphylococcus aureus [28]
  MIC: 16 µg/mL (≈ 11 µM)
Staphylococcus aureus [29]
  MIC: 0.06 µg/mL (≈ 0.0414 µM)
Staphylococcus aureus [30]
  MIC: 16 µg/mL (≈ 11 µM)
Staphylococcus aureus [31]
  MIC: 8 µg/mL (≈ 5.52 µM)
Staphylococcus aureus [32]
  MIC: 8 µg/mL (≈ 5.52 µM)
Staphylococcus aureus [33]
  MIC: 8 µg/mL (≈ 5.52 µM)
Staphylococcus aureus [34]
  MIC: 32 µg/mL (≈ 22.1 µM)
Staphylococcus aureus [35]
  MIC: 8 µg/mL (≈ 5.52 µM)
Staphylococcus aureus [36]
  MIC: 8 µg/mL (≈ 5.52 µM)
Staphylococcus aureus [37]
  MIC: 8 µg/mL (≈ 5.52 µM)
Staphylococcus aureus [38]
  MIC: 8 µg/mL (≈ 5.52 µM)
Staphylococcus aureus [39]
  MIC: 8 µg/mL (≈ 5.52 µM)
Staphylococcus aureus [40]
  MIC: 32 µg/mL (≈ 22.1 µM)
Staphylococcus aureus [41]
  MIC: 16 µg/mL (≈ 11 µM)
Staphylococcus aureus [42]
  MIC: 32 µg/mL (≈ 22.1 µM)
Staphylococcus aureus [43]
  MIC: 8 µg/mL (≈ 5.52 µM)
Staphylococcus aureus [44]
  MIC: 32 µg/mL (≈ 22.1 µM)
Staphylococcus aureus [45]
  MIC: 8 µg/mL (≈ 5.52 µM)
Staphylococcus aureus [46]
  MIC: 8 µg/mL (≈ 5.52 µM)
Staphylococcus aureus [47]
  MIC: 16 µg/mL (≈ 11 µM)
Staphylococcus aureus [48]
  MIC: 8 µg/mL (≈ 5.52 µM)
Staphylococcus aureus [49]
  MIC: 8 µg/mL (≈ 5.52 µM)
Staphylococcus aureus [50]
  MIC: 8 µg/mL (≈ 5.52 µM)
Staphylococcus aureus [51]
  MIC: 8 µg/mL (≈ 5.52 µM)
Staphylococcus aureus [52]
  MIC: 8 µg/mL (≈ 5.52 µM)
Staphylococcus aureus [53]
  MIC: 8 µg/mL (≈ 5.52 µM)
Staphylococcus aureus [54]
  MIC: 8 µg/mL (≈ 5.52 µM)
Staphylococcus aureus [55]
  MIC: 8 µg/mL (≈ 5.52 µM)
Staphylococcus aureus [56]
  MIC: 8 µg/mL (≈ 5.52 µM)
Staphylococcus aureus [57]
  MIC: 8 µg/mL (≈ 5.52 µM)
